Measured values: PMC8205226, “HIV-1 Integrase Inhibitors with Modifications That Affect Their Potencies against Drug Resistant Integrase Mutants” (ACS Infectious Diseases, 2021)
Read-outs that look alike come from different tables or passages of the source.

Legend:
Type in all cases: cell-based
WT HIV-1 = assay: single-round infectivity assay, WT HIV-1 IN vector; settings: new compounds
Experimental: (§1) Figure 2 Antiviral activities of the new compounds against RAL-resistant mutants. The EC50 values were determined using a vector that carries WT HIV-1 IN and the RAL-resistant mutants in a single round infection assay. […] Error bars represent the standard deviations of independent experiments, n = 4, performed in triplicate. The graph has a maximum value of 550 nM.
(§2) WT and mutant HIV-1 viral vectors were used in single-round infectivity assays to determine the antiviral potencies (EC50 values) of the compounds and the effects of the mutants on the EC50 values as previously described.[30],[54] Single round infectivity measurements were determined as done previously.[38]
(§3) The vector pNLNgoMIVR-ΔENV.LUC has been described previously.[26] To produce the new IN mutants used in this study, the IN open reading frame was removed from pNLNgoMIVR-ΔENV.LUC by digestion with KpnI and SalI, and the resulting fragment was inserted between the KpnI and SalI sites of pBluescript KS+. Using that construct as the wild-type template, we prepared the following HIV-1 IN mutants using the QuikChange II XL site directed mutagenesis kit (Agilent Technologies, Santa Clara, CA) protocol: N117A, N117H, P142A, P142H, P142S, Y143C, Y143H, S230R, R231G, and R231K. The following sense oligonucleotides were used with matching cognate antisense oligonucleotides (not shown) (Integrated DNA Technologies, Coralville, IA) in the mutagenesis: N117A, 5′-[…]-3′; N117H, 5′-[…]-3′; P142A, 5′-[…]-3′; P142H, 5′-[…]-3′; P142S, 5′-[…]-3′; Y143C, 5′- […]-3′; Y143H, 5′-[…]-3′; S230R, 5′- […]-3′; R231G, 5′-[…]-3′; R231K, 5′-[…]-3′.

HIV-1 IN mutant Y143R = assay: single-round infectivity assay, Y143R IN mutant
Experimental: as §1, §2, §3

HIV-1 IN mutant N155H = assay: single-round infectivity assay, N155H IN mutant
Experimental: as §1, §2, §3

[1] = test system: HIV-1 IN double mutant G140S/Q148H; assay: single-round infectivity assay, G140S/Q148H IN double mutant
Experimental: as §1, §2, §3

HIV-1 IN mutant N117A = assay: single-round infectivity assay, N117A IN mutant
Experimental: (§4) The EC50 values were determined using a vector that carries the IN mutant in a single round infection assay. […] Error bars represent the standard deviations of independent experiments, n = 4, performed in triplicate.
as §2, §3

HIV-1 IN mutant N117H = assay: single-round infectivity assay, N117H IN mutant
Experimental: as §4, §2, §3

HIV-1 IN mutant G118R = assay: single-round infectivity assay, G118R IN mutant
Experimental: as §4, §2, §3

HIV-1 IN mutant S119R = assay: single-round infectivity assay, S119R IN mutant
Experimental: as §4, §2, §3

HIV-1 IN mutant Y143C = assay: single-round infectivity assay, Y143C IN mutant
Experimental: as §4, with “Figure 4 Mutations in the β5-α3 loop affect the antiviral potencies of the new compounds. The” for “The”
as §2, §3

HIV-1 IN mutant Y143H = assay: single-round infectivity assay, Y143H IN mutant
Experimental: as §4, with “Figure 4 Mutations in the β5-α3 loop affect the antiviral potencies of the new compounds. The” for “The”
as §2, §3

HIV-1 IN mutant P142A = assay: single-round infectivity assay, P142A IN mutant
Experimental: as §4, with “Figure 4 Mutations in the β5-α3 loop affect the antiviral potencies of the new compounds. The” for “The”
as §2, §3

HIV-1 IN mutant P142H = assay: single-round infectivity assay, P142H IN mutant
Experimental: as §4
Single round infectivity measurements were determined as done previously.[38]
as §3

HIV-1 IN mutant P142S = assay: single-round infectivity assay, P142S IN mutant
Experimental: as §4, with “Figure 4 Mutations in the β5-α3 loop affect the antiviral potencies of the new compounds. The” for “The”
as §2, §3

HIV-1 IN mutant S230R = assay: single-round infectivity assay, S230R IN mutant
Experimental: as §4, with “Figure 5 Antiviral potencies of the new compounds against IN with mutations in the […]. The” for “The”
as §2, §3

HIV-1 IN mutant R231G = assay: single-round infectivity assay, R231G IN mutant
Experimental: as §4, with “Figure 5 Antiviral potencies of the new compounds against IN with mutations in the […]. The” for “The”
as §2, §3

HIV-1 IN mutant R231K = assay: single-round infectivity assay, R231K IN mutant
Experimental: as §4, with “Figure 5 Antiviral potencies of the new compounds against IN with mutations in the […]. The” for “The”
as §2, §3

[2] = fold change in EC50, IN mutant versus WT HIV-1

Nc1c(C(=O)NCc2ccc(F)cc2F)c(=O)n(O)c2ncc(CCS(=O)(=O)CCN3CCOCC3)cc12 [6v, 4-Amino-N-(2,4-difluorobenzyl)-1-hydroxy-6-(2-((2-morpholinoethyl)sulfonyl)ethyl)-2-oxo-1,2-dihydro-1,8-naphthyridine-3-carboxamide]
EC50 (WT HIV-1; Human immunodeficiency virus 1, read-out: EC50 values WT, vector carrying WT HIV-1 IN, single round infection, n = 4): 268 ± 68.8 nM
EC50 (WT HIV-1; read-out: EC50 values WT, vector carrying WT HIV-1 IN, single round infection, n = 4): > 250 nM
ratio of the EC50s (our compound relative to DTG) against Y143R (HIV-1 IN mutant Y143R; EC50 compound / EC50 DTG): 25.3
EC50 (HIV-1 IN mutant Y143R; Human immunodeficiency virus 1, read-out: EC50 values Y143R): 109 ± 16.2 nM
FC Y143R (HIV-1 IN mutant Y143R; [2]): 0.4
ratio of the EC50s (our compound relative to DTG) against N155H (HIV-1 IN mutant N155H; EC50 compound / EC50 DTG): 38.8
EC50 (HIV-1 IN mutant N155H; Human immunodeficiency virus 1, read-out: EC50 values N155H): 140 ± 4.9 nM
FC N155H (HIV-1 IN mutant N155H; [2]): 0.5
ratio of the EC50s (our compound relative to DTG) against G140S/Q148H ([1]; EC50 compound / EC50 DTG): 71.1
EC50 ([1]; Human immunodeficiency virus 1, read-out: EC50 values G140S/Q148H): 412 ± 120 nM
FC G140S/Q148H [1, 2]: 1.5
ratio of the EC50s (our compound relative to DTG) against N117A (HIV-1 IN mutant N117A; EC50 compound / EC50 DTG): 319.0
EC50 (HIV-1 IN mutant N117A; Human immunodeficiency virus 1, read-out: EC50 values N117A): 160 nM
FC N117A (HIV-1 IN mutant N117A; [2]): 0.6
ratio of the EC50s (our compound relative to DTG) against N117H (HIV-1 IN mutant N117H; EC50 compound / EC50 DTG): 207.3
EC50 (HIV-1 IN mutant N117H; Human immunodeficiency virus 1, read-out: EC50 values N117H): 497 nM
FC N117H (HIV-1 IN mutant N117H; [2]): 1.9
ratio of the EC50s (our compound relative to DTG) against G118R (HIV-1 IN mutant G118R; EC50 compound / EC50 DTG): 88.3
EC50 (HIV-1 IN mutant G118R; Human immunodeficiency virus 1, read-out: EC50 values G118R): 1150 ± 270 nM
FC G118R (HIV-1 IN mutant G118R; [2]): 4.3
ratio of the EC50s (our compound relative to DTG) against S119R (HIV-1 IN mutant S119R; EC50 compound / EC50 DTG): 213.0
EC50 (HIV-1 IN mutant S119R; Human immunodeficiency virus 1, read-out: EC50 values S119R): 490 ± 43.1 nM
FC S119R (HIV-1 IN mutant S119R; [2]): 1.8
ratio of the EC50s (our compound relative to DTG) against Y143C (HIV-1 IN mutant Y143C; EC50 compound / EC50 DTG): 308.4
EC50 (HIV-1 IN mutant Y143C; Human immunodeficiency virus 1, read-out: EC50 values Y143C, single round infection, n = 4): 432 ± 75.3 nM
FC Y143C (HIV-1 IN mutant Y143C; [2]): 1.6
ratio of the EC50s (our compound relative to DTG) against Y143H (HIV-1 IN mutant Y143H; EC50 compound / EC50 DTG): 172.0
EC50 (HIV-1 IN mutant Y143H; Human immunodeficiency virus 1, read-out: EC50 values Y143H, single round infection, n = 4): 378 ± 38.9 nM
FC Y143H (HIV-1 IN mutant Y143H; [2]): 1.4
ratio of the EC50s (our compound relative to DTG) against P142A (HIV-1 IN mutant P142A; EC50 compound / EC50 DTG): 145.9
EC50 (HIV-1 IN mutant P142A; Human immunodeficiency virus 1, read-out: EC50 values P142A): 365 ± 39.4 nM
ratio of the EC50s (our compound relative to DTG) against P142H (HIV-1 IN mutant P142H; EC50 compound / EC50 DTG): 159.9
EC50 (HIV-1 IN mutant P142H; Human immunodeficiency virus 1, read-out: EC50 values P142H): 448 ± 35.8 nM
ratio of the EC50s (our compound relative to DTG) against P142S (HIV-1 IN mutant P142S; EC50 compound / EC50 DTG): 156.4
EC50 (HIV-1 IN mutant P142S; Human immunodeficiency virus 1, read-out: EC50 values P142S): 344 ± 26.9 nM
ratio of the EC50s (our compound relative to DTG) against S230R (HIV-1 IN mutant S230R; EC50 compound / EC50 DTG): 134.0
EC50 (HIV-1 IN mutant S230R; Human immunodeficiency virus 1, read-out: EC50 values S230R): 616 ± 79.8 nM
FC S230R (HIV-1 IN mutant S230R; [2]): 2.3
ratio of the EC50s (our compound relative to DTG) against R231G (HIV-1 IN mutant R231G; EC50 compound / EC50 DTG): 133.8
EC50 (HIV-1 IN mutant R231G; Human immunodeficiency virus 1, read-out: EC50 values R231G): 187 ± 17 nM
FC R231G (HIV-1 IN mutant R231G; [2]): 0.7
ratio of the EC50s (our compound relative to DTG) against R231K (HIV-1 IN mutant R231K; EC50 compound / EC50 DTG): 97.9
EC50 (HIV-1 IN mutant R231K; Human immunodeficiency virus 1, read-out: EC50 values R231K, single round infection, n = 4): 411 ± 58 nM
FC R231K (HIV-1 IN mutant R231K; [2]): 1.5
